Laboratory results taken from patent publication US8175371B2, “Method for imaging and differential analysis of cells” (Amnis Corporation, priority 2004, dated 2012).

System: Jurkat cells
Assay: Annexin V / 7-AAD staining of treated Jurkat cells, evaluated by flow cytometry and fluorescence microscopy
Type: cell-based, Human
Conditions: Jurkat T cells, Alexa Fluor 488 annexin V and 7-AAD
Method: Human acute T leukemic Jurkat cell line was obtained from ATCC (Rockville, Md.; catalog number CRL-1990) and maintained in RPMI 1640 (Gibco, Grand Island, N.Y.) containing 5% fetal bovine serum, 1 mM sodium pyruvate (Mediatech, Herndon, Va.), 100 µM nonessential amino acids, 100 U/ml penicillin, 100 µg/ml streptomycin, and 2 mM L-glutamine (BioWhittaker, Walkersville, Md.) in 5% CO2 atmosphere at 37 degrees C. The density of exponentially growing cells was less than 3×10^5 cells per ml at the time of all treatments. To induce apoptosis, cells were treated for 18 hours with 1 µM camptothecin (CPT, Sigma), a DNA topoisomerase I inhibitor. […]
Control (untreated) cell, CPT treated (apoptotic) cells, and peroxide treated (necrotic) cells were independently counted and washed once in phosphate buffered saline (PBS, Fair Lawn, N.J.). […] Each cell group was washed in annexin V Binding Buffer, fixed in 2% paraformaldehyde (Sigma), and analyzed as either single populations or as a mixture by flow cytometry and immunofluorescence microscopy.
For flow cytometry, cell fluorescence data excited by a 488 nm laser were acquired using the FACSort™ cytometer (BD Immunocytometry Systems, San Jose, Calif.) and analyzed using CellQuest™ (BD Immunocytometry Systems). […]

SMILES | annexin V / 7-AAD staining of treated cells (apoptosis induction) (1 µM CPT for 18 hours, FIG. 2B) | annexin V / 7-AAD staining of treated cells (necrosis induction) (0.3% hydrogen peroxide for 1 hour, FIG. 2C)
CC[C@@]1(O)C(=O)OCc2c1cc1n(c2=O)Cc2cc3ccccc3nc2-1 [CPT, camptothecin] | two populations of cells, those that were annexin V^+ (single positive, SP, or early apoptotic cells), and those that were annexin V^+, 7-AAD^+ (double positive, DP, or late apoptotic cells) | 
OO [peroxide, hydrogen peroxide] |  | stained positively with both annexin V and 7-AAD
